Results: ChEMBL document CHEMBL1146115, “Synthesis and evaluation of novel heterocyclic inhibitors of GSK-3” (Bioorg Med Chem Lett, 2006)

Biological target: Glycogen synthase kinase-3 (Homo sapiens, UniProt P49840+P49841)
Assay: Inhibition of GSK3
Assay type: protein assay

Row | SMILES | Log IC50
1 | COc1cccc(-n2ccc3c(N/N=C/c4ccncc4)ncnc32)c1 | -7.5
2 | COc1cccc(-c2[nH]nc3c(N/N=C/c4ccncc4)ncnc23)c1 | -8.3
3 | COc1cccc(-n2ncc3c(N/N=C/c4ccncc4)ncnc32)c1 [GW784752X] | -8.2
4 | COc1cccc(-c2c[nH]c3c(N/N=C/c4ccncc4)ncnc23)c1 [GW814408X] | -8.3

Results, then the molecule that gave them:

Row | Log IC50 | SMILES
5 | -6.3 | COc1cccc(-c2cn(C)c3c(N/N=C/c4ccncc4)ncnc23)c1
6 | -6.2 | COc1cccc(-n2cnc3c(N/N=C/c4ccncc4)ncnc32)c1 [GW813360X]
